Reference: patent US20090221530A1, “Relaxase Modulators and Methods of Using Same” (priority 2005, published 2009)
≈ marks a conversion by molar mass, not a printed value. Read-outs that look alike come from different tables or passages of the source.

Experiments:
[1] = test system: F+ or F− cells; experiment: 24 hr. MIC bounds (turbid/clear wells); assay type: cell-based, E. coli; settings: Escherichia coli, 8x serial dilutions, bounds identical for F+ or F− cells
[2] = molecular target: T1, F plasmid TraI N300 (Escherichia coli, UniProt P14565); experiment: Fluorescence kinetic assay of oriT DNA cleavage and crossover by TraI N300; assay type: biochemical, E. coli
T1 construct: An amino-terminal 300 residue F plasmid TraI construct; made in house; host or cells: E. coli BL21 (DE3)/pLysS or HMS174 (DE3)/pLysS, vector pTYB2
Experimental: Reaction Buffer: 6.42 mM MgCl2, 20.5% glycerol, 153.9 mM NaCl, and 51.3 mM Tris-HCl pH 7.5. Streptavidin Wash Buffer (Tris buffered saline, TBS/Tween): and 150 mM NaCl, 25 mM Tris-HCl pH 7.5, and 0.05% Tween-20. Stopping Buffer: 1.2% sodium-dodecyl sulfate (SDS), and 300 mM EDTA pH 10. TE Buffer: 1 mM EDTA, and 10 mM Tris-HCl pH 7.4. Fluorescence Buffer: 80% glycerol, 200 mM Tris-HCl pH 8.0. Short-term N300 stock (for storage at −20° C.): 50% Reaction Buffer, 49.8% glycerol, 0.2% long-term protein solution (84.6 nM final N300 concentration). All 5× stocks except Probe stocks were diluted in Reaction Buffer. 5× Enzyme Stock: 8.4 mL short-term N300 stock diluted to 2.02 nM N300. 5× Inhibitor Stocks: imidodiphosphate (pNp) at 0-50 nM in Reaction Buffer. 5× Substrate Stocks: oligonucleotides b29 and PCb31eco diluted to […] each, by 3-fold serial dilutions. 5× Probe Stocks: […] (1.2-fold molar excess) oligonucleotide downF in TE Buffer. All reactions and procedures involving downF were assembled or performed in darkened conditions. Solutions and microtiter plates containing downF were kept in foil-lined containers at all times to prevent photobleaching.
Two oriT derived oligonucleotides, b29 and PCb31eco, were designed for binding and cleavage by TraI based on past studies (see Oligonucleotides section herein; FIG. 4A). The overall method is modified from those described previously for the study of TraI and R388TrwC (Byrd et al., 2002; Grandoso et al., 2000; Matson and Morton, 1991). Reactions were assembled from 16 μL of 5× Substrate Stock, 16 μL of 5× Inhibitor Stock, and 32 μL of Reaction Buffer. 80 μL reactions were initiated with 16 μL of 5× Enzyme Stock and raised to 37° C. 10 μL samples were removed at eight time points (optimized to define timecourses) and stopped in 10 μL of Stopping Buffer at room temperature. Stopped reactions were placed on a 100° C. heat block for one minute, spiked with 2 μL of 5× Probe Stock while still hot, and incubated at 37° C. for 10 minutes (see Kinetic Assay Formulations for probe handling).
Samples were diluted to […] with Streptavidin Wash Buffer and transferred to Biobind Assembly streptavidin-coated microtiter plates (Thermo Electron Corporation, Waltham, Mass., U.S.A.) and incubated at 37° C. for 45 minutes. Plates were washed with at least 5-fold excess Streptavidin Wash Buffer (in an inverted position to prevent excess biotinylated species from transferring between wells). Wells were filled with 65 μL of Fluorescence Buffer for optimum 6-FAM™ fluorescence. Plates were read in a FLUOSTAR OPTIMA™ (BMG Labtech, Offenburg, Germany) with a 490 nm excitation and 520 nm emission filters (10 nm bandpass) with the gain optimized for maximum signal. The timecourses thus collected were designated Cleavage Courses. Plates were removed and irradiated with 306 nm ultraviolet radiation for 10 minutes to cleave the PC biotin linker. They were then washed inverted with at least 5-fold excess Streptavidin Wash Buffer, filled with 65 μL of Fluorescence Buffer, and again read as above. These timecourses were designated Cleavage+Crossover Courses (FIG. 4A).
All timecourses were fitted by nonlinear regression with un-weighted least-squares methods using SIGMAPLOT™ 8.0 (SYSTAT Software, Inc., Point Richmond, Calif., U.S.A.) (also used for graph construction). Timecourses with blanked signals in arbitrary fluorescence units were scaled by curve mean in groups of at least four replicates, culled for outliers, and averaged by time point. On average, one replicate time point was culled from each group of four used. The averaged curves were fitted to a simple, three-parameter exponential decay equation (Equation 1), time versus signal, and converted into units of concentration.
where t is time in seconds, y0+a is the initial signal, b is a constant that determines the shape of the curve. […]

[3] = test system: DNA conjugation from F+ (JS10) cells to F− (JS4) cells; experiment: Mating assay (conjugative DNA transfer); assay type: cell-based, E. coli; settings: Escherichia coli, F+ (JS10) donors to F− (JS4) recipients; FIG. 4D; read-out: EC50 of inhibition of DNA conjugation
Experimental: Mating assays were performed as described (Matson et al., 2001). Briefly, the donor strain JS10 contains pOX38T, a mini-F-plasmid capable of conjugative transfer, which also carries a Tet resistance gene, while the recipient strain JS4 is F− and Str^r. Donor and recipient strains from saturated overnight cultures grown under antibiotic selection were diluted 1:50 into LB and grown to an OD600 of approximately 0.6 in the absence of selection at 37° C. Donors and recipients were then mixed at a ratio of one donor to nine recipients in the presence of the desired concentrations of pNp (e.g., 10, 100 μM, 1, 10 mM) and incubated at 37° C. for five minutes. Following this incubation, the mating mixtures were diluted 1:10 into LB containing the desired concentration of pNp and incubated for a further 30 minutes. Following mating, the mixtures were vortexed to disrupt mating pairs and serially diluted into 0.9% sterile saline. Dilutions, predicted to result in 300-500 colonies on positive control plates, were plated on LB-agar plates containing both streptomycin and tetracycline in order to select for transconjugants and counter select for donors and unmated recipients. Eight replicate samples of each final dilution were plated, the colony counts culled for outliers at 95% confidence, and then averaged.

T1 sequence (P14565 1-306): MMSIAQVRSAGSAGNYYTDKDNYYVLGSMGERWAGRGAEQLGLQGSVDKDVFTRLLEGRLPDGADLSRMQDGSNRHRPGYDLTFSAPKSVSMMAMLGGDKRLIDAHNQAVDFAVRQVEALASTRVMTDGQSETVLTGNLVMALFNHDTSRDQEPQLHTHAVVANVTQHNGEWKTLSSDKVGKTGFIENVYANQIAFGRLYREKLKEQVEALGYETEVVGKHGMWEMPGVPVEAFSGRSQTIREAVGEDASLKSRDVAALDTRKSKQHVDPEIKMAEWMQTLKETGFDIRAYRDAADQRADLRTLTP

## O=P(O)(O)NP(=O)(O)O [pNp, imidodiphosphate]
[1]; clear wells after 24 hr. incubation, read-out: 24 hr. MIC bounds, upper
  MIC: 100 mM (≈ 17700 µg/mL)
[1]; turbid wells after 24 hr. incubation, read-out: 24 hr. MIC bounds, lower
  MIC: 12.5 mM (≈ 2210 µg/mL)
[2]; Cleavage, C-B/E Direct Linear Plot, read-out: Kic
  Ki: 2.42 nM
[2]; Cleavage, C-B/E Direct Linear Plot, read-out: Kiu
  Ki: 2.65 nM
[2]; Cleavage, M/M Nonlinear Regression, competitive inhibition constant, apparent, read-out: Kic
  Ki: 2.3 ± 0.26 nM
[2]; Cleavage, M/M Nonlinear Regression, uncompetitive inhibition constant, apparent, read-out: Kiu
  Ki: 3.17 ± 0.32 nM
[2]; Crossover, C-B/E Direct linear Plot, read-out: Kic
  Ki: 1.59 nM
[2]; Crossover, C-B/E Direct linear Plot, read-out: Kiu
  Ki: 3.24 nM
[2]; Crossover, M/M Nonlinear Regression, read-out: Kic
  Ki: 0.885 ± 0.543 nM
[2]; DNA cleavage, read-out: inhibition constants (Ki values) for both competitive and uncompetitive modes (Kic and Kiu)
  Ki: 2.5 to 3 nM
[2]; DNA crossover, read-out: Kic
  Ki: 0.9 to 1.6 nM
[2]; DNA crossover, read-out: Kiu
  Ki: 3.2 nM
[3]
  EC50: ~10000 nM
